For one experiment, the target named is Collagenase. The experiment in a line: collagenase enzyme inhibition, spectrophotometric. Format: biochemical. The conditions noted are these: read-out: Collagenase IC50.
For experiment [1], the system named is SPC-A-1, SK-LU-1, and 95D human lung cancer cell lines. The experiment in a line: MTT cytotoxicity assay, three lung cancer cell lines together. Format: cell-based. The conditions noted are these: read-out: IC50 growth inhibition in the three lung cancer cells. On the technique in general: Tetrazolium assays rely on reduction of a dye to a coloured formazan, in cell work by metabolically active cells.

A further experiment relates to 95D. Briefly: MTT cytotoxicity assay, 95D. Format: cell-based. As to conditions: Homo sapiens, read-out: 95D IC50.
For another experiment, the target named is Elastase (Sus scrofa, UniProt P00772). Briefly: elastase inhibitory activity, spectrophotometric. Format: biochemical.
Chain of Elastase (P00772 27-266): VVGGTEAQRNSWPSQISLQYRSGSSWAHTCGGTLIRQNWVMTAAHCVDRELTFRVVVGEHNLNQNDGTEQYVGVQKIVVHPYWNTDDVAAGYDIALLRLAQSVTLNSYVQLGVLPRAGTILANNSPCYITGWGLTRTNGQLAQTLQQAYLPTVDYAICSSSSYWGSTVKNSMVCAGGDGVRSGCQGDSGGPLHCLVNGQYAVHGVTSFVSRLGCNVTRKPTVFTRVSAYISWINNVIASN
For the next experiment, the system named is SK-LU-1. Briefly: MTT cytotoxicity assay, SK-LU-1. Format: cell-based. As to conditions: Homo sapiens, SK-LU-1, read-out: SK-LU-1 IC50.

Read-outs that look alike come from different tables or passages of the source. Where a SMILES comes first, the peptide text is derived from it. The star is where a group is joined. MeOSuc = COC(=O)CCC(=O)*; CH2Cl = ClC*

For orientation: IC50 means the concentration at which inhibition is half-maximal.

Regarding `CC(C)C[C@H](NP(=O)(O)O[C@@H]1O[C@@H](C)[C@H](O)[C@@H](O)[C@H]1O)C(=O)N[C@@H](Cc1c[nH]c2ccccc12)C(=O)O` [Phosphoramidon, reference compound], the IC50 on Collagenase came to 101 ± 14.8 µM.
In the case of `COc1cc(O)c(C(=O)/C=C/c2ccccc2)c(OC)c1` [Flavokawain B], the IC50 in experiment [1] is 12 to 30 µM; at Collagenase, 71.1 ± 16 µM; in the experiment with 95D it was 32.6 µM; against Elastase it was 20.1 ± 2.36 µM; in the experiment with SK-LU-1 it was 29.3 µM.
The like results for `COc1cc(O)c(C(=O)/C=C/c2ccc(O)cc2)c(OC)c1` [Flavokawain C] were, in that order, 12 to 30 µM, 62.1 ± 9.43 µM, 21 µM, 17.6 ± 1.68 µM and 22.7 µM.
Turning to `COc1ccc(/C=C/C(=O)c2c(O)cc(OC)cc2OC)cc1` [Flavokawain A], the IC50 was 12 to 30 µM in experiment [1]; 66.3 ± 7.95 µM at Collagenase; 22.4 µM in the experiment on 95D; 27.3 ± 4.67 µM against Elastase; 23.3 µM with SK-LU-1.
Consider `COc1cccc2c1C(=O)c1c(O)c3c(c(O)c1C2=O)C[C@@](O)(C(=O)CO)C[C@@H]3O[C@H]1C[C@H](N)[C@H](O)[C@H](C)O1` [Doxorubicin, reference compound], for which the IC50 in experiment [1] is 25 to 30 µM; in the experiment on 95D it was 25 µM; in the experiment with SK-LU-1, 25 µM.
Take `OC[C@H](Cc1cccc(O)c1)[C@H](CO)Cc1cccc(O)c1` [Enterodiol]: the IC50 was 104 ± 11.3 µM at Collagenase, 64.1 µM with 95D, 11.1 ± 1.87 µM against Elastase and 67.3 µM in the experiment with SK-LU-1.
Taken in the same sequence, the figures for `O=C1OC[C@H](Cc2cccc(O)c2)[C@H]1Cc1cccc(O)c1` [Enterolactone] were 9.66 ± 1.52 µM, 41.1 µM, 22.5 ± 4.08 µM and 45.8 µM.
On to `COC(=O)CCC(=O)N[C@@H](C)C(=O)N[C@@H](C)C(=O)N1CCC[C@H]1C(=O)N[C@H](C(=O)CCl)C(C)C` [N-(Methoxysuccinyl)-Ala-Ala-Pro-Val-chloromethyl ketone, reference compound] (MeOSuc-AAPV-CH2Cl), for which the IC50 on Elastase (read-out: Elastase IC50) was 30.6 ± 3.25 µM.
